Laboratory results: patent US5476944A, “Derivatives of cyclic phenolic thioethers” (G. D. Searle & Co., priority 1994, dated 1995)

Molecular target: T1, cellular COX-II (Homo sapiens, UniProt P35354)
T1 construct: stimulated human fetal dermal fibroblasts (HFDF, derived from primary cell cultures); endogenous in cells; host or cells: human fetal dermal fibroblasts (HFDF), primary, stimulated with IL-1 beta
T1 sequence (P35354 18-604): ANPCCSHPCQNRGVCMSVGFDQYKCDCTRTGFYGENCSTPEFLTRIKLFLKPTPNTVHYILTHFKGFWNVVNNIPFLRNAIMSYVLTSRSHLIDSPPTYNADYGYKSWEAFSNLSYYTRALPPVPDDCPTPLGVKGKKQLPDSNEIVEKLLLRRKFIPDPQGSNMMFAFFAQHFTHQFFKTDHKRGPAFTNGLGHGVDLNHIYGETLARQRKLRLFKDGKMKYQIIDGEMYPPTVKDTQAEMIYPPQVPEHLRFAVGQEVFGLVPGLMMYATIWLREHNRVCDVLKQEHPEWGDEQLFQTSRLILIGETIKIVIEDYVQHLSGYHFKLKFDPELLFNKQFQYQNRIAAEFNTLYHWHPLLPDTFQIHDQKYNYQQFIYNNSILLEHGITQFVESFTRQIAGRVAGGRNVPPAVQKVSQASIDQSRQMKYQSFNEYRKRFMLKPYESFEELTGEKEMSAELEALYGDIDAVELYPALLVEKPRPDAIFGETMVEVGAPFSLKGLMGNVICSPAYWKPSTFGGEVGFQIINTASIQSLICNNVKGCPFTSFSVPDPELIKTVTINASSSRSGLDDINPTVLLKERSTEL
Assay: Cellular COX-II Assay (Cell Fibroblast Assay), IL-1 stimulated human fetal dermal fibroblasts, PGE2
Format: cell-based
Details: IL-1 beta stimulated human fetal dermal fibroblasts
Method: The compounds of the invention are evaluated with respect to the inhibition of cellular COX-II in vitro according to the following Cellular COX-II Assay (Cell Fibroblast Assay).
Cellular COX-II Assay (Cell Fibroblast Assay)
Inhibition of cellular COX-II by test compounds is determined using stimulated human fetal dermal fibroblasts (HFDF, derived from primary cell cultures). Fibroblasts are cultured in microtiter wells at 1.5×10^4 cells/well in Dulbecco's Modified Eagle's Media (DMEM)(Gibco/BRL, Gaithersburg, Md. Sigma Chemical Co., St. Louis, Mo.) containing 4500 mg glucose/L, 100 units penicillin G/ml and 0.1 mg streptomycin/ml, 4 mM L-glutamine, 25 mM Hepes and 10% Fetal Bovine Serum (Gibco/BRL, Gaithersburg, Md. Bioproducts For Science, Inc., Indianapolis,Ind.). Following a 3-day incubation at 37° C., the culture media is removed by aspiration using low vacuum, and the cells are stimulated overnight with medium containing human recombinant IL-1 (interleukin-1) beta (1 ng/ml)(Cistron, Pine Brook, N.J.). The next day, the fibroblasts are washed with Phosphate Buffered Saline, and 185 μl of DMEM is added to each well. The cells are placed in a 37° C. incubator for 15 minutes. Compounds are then added to the cells using seven half-log dilutions in duplicate determinations. Cells are incubated with test compounds at 37° C. for 30 minutes. The COX-II substrate arachidonic acid (20 μM; Nu-Chek-Prep Inc., Elysian, Minn.) is then added to the cell cultures and the plates are incubated for 10 minutes at 37° C. Supernatants are collected and Prostaglandin E2 (PGE2) production is measured by an enzyme-linked immunosorbent assay (ELISA; antibodies produced by Cayman Chemical Company, Ann Arbor, Mich.). […] PG,60
The following is a description of how the activities of the compounds of the present invention may be determined.
A run of this assay consists of one (or more) plates, each containing, along with the standard (in row A), (1) two wells of unstimulated material (in col. 12), (2) five wells of stimulated material (in col. 12), (3) seven wells (one per concentration) for indomethacin (in col. 11), and (4) two wells at each of seven concentrations for five test compounds, one of which is a repeat of indomethacin. The response (ng/ml Eicosanoid) is estimated from the Standard curve and is highest at low concentrations and decreases as the concentration increases. If the response is plotted on the y-axis and the log of the concentration is plotted on the x-axis, the dose-response pattern for these assays is typically a symmetrical, sigmoidal shaped curve. If a full range of concentrations is used, the complete sigmoidal curve may be seen, starting with an upper asymptote, falling at some degree of steepness, and then leveling off at a lower asymptote. The IC50 is defined as the concentration corresponding to a response midway between the upper and lower plateaus. A theoretic "dose-response" model is used to estimate the IC50.
The procedure described below was used to define the minimum and maximum responses for the compounds on a plate.
The procedure uses information for indomethacin and the rest of the plate in defining the minimum and maximum response. The justification for doing this is as follows. Enough runs have been done with indomethacin to determine and use a range of concentrations such that the response to the lowest concentrations is on the upper plateau of the sigmoidal curve and the response to the highest concentrations is on the lower plateau of the sigmoidal curve. For the other compounds, if a response is measured which is less than the response for the unstimulated wells, then this response may be considered to be another estimate of a minimal response. Likewise, if a response is measured which is greater than the response for the stimulated wells, then this response may be considered to be another estimate of a maximal response. Based on this reasoning, the minimum is estimated as follows: […]

IC50: 370 nM
Structure (SMILES): CC(C)(C)c1cc(S[C@H]2CCCC[C@H]2OCC(=O)O)cc(C(C)(C)C)c1 (racemic) [Example 72, (±)cis-2-[[2-[[3,5-bis(1,1-dimethylethyl)phenyl]thio]cyclohexyl]oxy]acetic acid]
